From publication PMC5748027, “Computer-aided design of multi-target ligands at A1R, A2AR and PDE10A, key proteins in neurodegenerative diseases” (Journal of Cheminformatics, 2017)

Tests used:
[1] = biological target: T1, A1 human adenosine receptor (A1R) (Homo sapiens, UniProt P30542); test: Radioligand binding competition assay, human A1 receptor in transfected CHO cells; conditions: 0.1 µM compound; read-out: % displacement at 0.1 μM (A1R)
T1 construct: expressed in transfected cells; host or cells: CHO
T1 sequence (P30542 1-326): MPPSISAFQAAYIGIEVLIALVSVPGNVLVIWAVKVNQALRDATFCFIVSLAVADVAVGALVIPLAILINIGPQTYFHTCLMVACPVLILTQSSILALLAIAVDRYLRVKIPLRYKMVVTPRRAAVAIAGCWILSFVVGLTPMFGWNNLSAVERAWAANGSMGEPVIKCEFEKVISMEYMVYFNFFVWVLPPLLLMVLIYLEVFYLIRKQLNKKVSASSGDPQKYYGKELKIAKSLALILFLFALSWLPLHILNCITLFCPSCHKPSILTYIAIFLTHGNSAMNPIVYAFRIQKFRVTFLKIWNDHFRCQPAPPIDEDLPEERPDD
Procedure: Pharmacological evaluation was performed in a radioligand binding competition assay, using A1, A2A, A2B, and A3 human receptors expressed in transfected CHO (A1), HeLa (A2A and A3), and HEK-293 (A2B) according to the procedure reported by Bosch et al. [78].

[2] = biological target: T2, A2A human adenosine receptor (A2AR) (Homo sapiens, UniProt P29274); test: Radioligand binding competition assay, human A2A receptor in transfected HeLa cells; conditions: 0.1 µM compound
T2 construct: expressed in transfected cells; host or cells: HeLa
T2 sequence (P29274 whole entry): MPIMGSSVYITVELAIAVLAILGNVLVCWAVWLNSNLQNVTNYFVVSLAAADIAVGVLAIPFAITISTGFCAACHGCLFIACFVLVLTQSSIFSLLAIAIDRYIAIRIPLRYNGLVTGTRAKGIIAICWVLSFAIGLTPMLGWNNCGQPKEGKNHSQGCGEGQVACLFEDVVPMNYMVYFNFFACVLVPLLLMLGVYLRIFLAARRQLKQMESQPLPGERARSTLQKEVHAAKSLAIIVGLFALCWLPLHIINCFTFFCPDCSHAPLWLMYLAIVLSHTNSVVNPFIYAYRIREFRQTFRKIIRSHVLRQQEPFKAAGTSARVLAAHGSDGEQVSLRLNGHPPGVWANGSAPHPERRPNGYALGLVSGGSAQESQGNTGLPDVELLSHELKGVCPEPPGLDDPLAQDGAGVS
Procedure: (§1) Bioactivity testing was performed using A1 and A2A human adenosine receptors expressed in transfected CHO (A1) and HeLa (A2A) cells, as well as AD293 cells that were transiently transfected with human PDE10A. Table 1 includes the list of synthesized 4,6-substituted 2-amino-pyridin-3-carbonitriles, along with their Ki values against A1R, A2AR, and IC50 values against PDE10A.
(§2) Pharmacological evaluation was performed in a radioligand binding competition assay, using A1, A2A, A2B, and A3 human receptors expressed in transfected CHO (A1), HeLa (A2A and A3), and HEK-293 (A2B) according to the procedure reported by Bosch et al..

[3] = biological target: T3, A2B human receptor (A2BR) (Homo sapiens, UniProt P29275); test: Radioligand binding competition assay, human A2B receptor in transfected HEK-293 cells; conditions: 0.1 µM compound; read-out: percentage displacement at 0.1µM (A2BR)
T3 construct: expressed in transfected cells; host or cells: HEK-293
T3 sequence (P29275 1-332): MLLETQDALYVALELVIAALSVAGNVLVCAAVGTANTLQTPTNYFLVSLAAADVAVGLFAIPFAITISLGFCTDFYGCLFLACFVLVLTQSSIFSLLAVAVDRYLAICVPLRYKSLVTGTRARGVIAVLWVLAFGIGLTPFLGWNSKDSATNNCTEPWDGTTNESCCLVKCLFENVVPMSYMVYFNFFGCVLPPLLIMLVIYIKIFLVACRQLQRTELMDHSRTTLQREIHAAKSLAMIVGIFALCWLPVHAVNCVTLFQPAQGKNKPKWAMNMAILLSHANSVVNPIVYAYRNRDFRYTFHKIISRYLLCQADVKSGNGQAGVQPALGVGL
Procedure: as §2

[4] = biological target: T4, A3 human receptor (A3R) (Homo sapiens, UniProt P0DMS8); test: Radioligand binding competition assay, human A3 receptor in transfected HeLa cells; conditions: 0.1 µM compound; read-out: percentage displacement at 0.1µM (A3R)
T4 construct: expressed in transfected cells; host or cells: HeLa
T4 sequence (P0DMS8 1-318): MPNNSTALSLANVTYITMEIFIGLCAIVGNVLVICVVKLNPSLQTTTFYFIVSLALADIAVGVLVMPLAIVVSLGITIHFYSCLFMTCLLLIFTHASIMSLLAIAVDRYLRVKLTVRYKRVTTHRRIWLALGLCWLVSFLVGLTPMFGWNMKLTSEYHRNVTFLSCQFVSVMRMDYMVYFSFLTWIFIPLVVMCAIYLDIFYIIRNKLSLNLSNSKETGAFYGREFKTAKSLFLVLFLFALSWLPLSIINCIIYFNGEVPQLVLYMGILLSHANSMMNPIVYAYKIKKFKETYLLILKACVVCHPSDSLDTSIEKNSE
Procedure: as §2

[5] = biological target: T5, human PDE10A (Homo sapiens, UniProt Q9Y233); test: Phosphodiesterase activity, AD293 cells transiently transfected with human PDE10A; format: biochemical; conditions: mean of 3 experiments in duplicate
T5 construct: expressed in transfected cells; host or cells: AD293 (transient transfection)
T5 sequence (Q9Y233 267-1055 limits assumed): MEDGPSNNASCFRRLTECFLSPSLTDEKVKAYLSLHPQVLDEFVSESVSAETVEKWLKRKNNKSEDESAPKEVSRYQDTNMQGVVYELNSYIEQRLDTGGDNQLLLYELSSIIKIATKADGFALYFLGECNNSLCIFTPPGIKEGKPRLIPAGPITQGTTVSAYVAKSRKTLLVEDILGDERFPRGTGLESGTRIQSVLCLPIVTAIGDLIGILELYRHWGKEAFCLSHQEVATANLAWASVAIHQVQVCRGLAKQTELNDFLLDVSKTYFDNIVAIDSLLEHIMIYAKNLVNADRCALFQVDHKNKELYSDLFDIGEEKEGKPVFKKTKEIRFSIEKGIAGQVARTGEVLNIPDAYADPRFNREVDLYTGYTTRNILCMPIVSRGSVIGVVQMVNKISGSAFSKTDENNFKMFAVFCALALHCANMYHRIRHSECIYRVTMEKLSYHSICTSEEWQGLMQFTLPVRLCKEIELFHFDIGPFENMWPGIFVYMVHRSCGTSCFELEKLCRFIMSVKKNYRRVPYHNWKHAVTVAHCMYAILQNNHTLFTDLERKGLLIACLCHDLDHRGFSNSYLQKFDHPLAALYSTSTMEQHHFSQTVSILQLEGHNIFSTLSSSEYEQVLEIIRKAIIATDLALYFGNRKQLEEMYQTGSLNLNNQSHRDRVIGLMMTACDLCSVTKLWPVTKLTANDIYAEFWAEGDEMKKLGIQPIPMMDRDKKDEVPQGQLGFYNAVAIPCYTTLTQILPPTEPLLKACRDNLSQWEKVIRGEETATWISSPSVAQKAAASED
Procedure: as §1
(§3) The activity measurements against the phosphodiesterases PDE7A, PDE7B, PDE9A and PDE10A were performed using AD293 cells that were transiently and separately transfected with human PDE7A, PDE7B, PDE9A, and PDE10A following the procedure described by Shipe et al..

[6] = biological target: T6, human PDE7A (Homo sapiens, UniProt Q13946); test: Phosphodiesterase activity, AD293 cells transiently transfected with human PDE7A; format: biochemical; conditions: 10 µM compound; read-out: Percentage inhibition at 10µM (PDE7A)
T6 construct: expressed in transfected cells; host or cells: AD293 (transient transfection)
T6 sequence (Q13946 whole entry): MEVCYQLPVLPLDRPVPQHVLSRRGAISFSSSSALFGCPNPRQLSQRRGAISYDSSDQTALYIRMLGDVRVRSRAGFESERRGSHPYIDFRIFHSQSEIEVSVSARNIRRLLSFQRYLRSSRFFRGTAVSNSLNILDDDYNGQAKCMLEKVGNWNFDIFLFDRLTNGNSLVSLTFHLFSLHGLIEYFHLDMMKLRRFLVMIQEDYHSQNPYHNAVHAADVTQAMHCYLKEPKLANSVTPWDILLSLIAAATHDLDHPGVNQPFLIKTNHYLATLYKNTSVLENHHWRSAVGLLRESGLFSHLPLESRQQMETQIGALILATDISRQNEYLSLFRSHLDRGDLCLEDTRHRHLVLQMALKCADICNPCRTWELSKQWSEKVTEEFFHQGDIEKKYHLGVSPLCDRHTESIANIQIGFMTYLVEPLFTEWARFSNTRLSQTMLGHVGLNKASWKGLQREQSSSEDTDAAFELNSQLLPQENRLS
Procedure: as §3

[7] = biological target: T7, human PDE7B (Homo sapiens, UniProt Q9NP56); test: Phosphodiesterase activity, AD293 cells transiently transfected with human PDE7B; format: biochemical; conditions: 10 µM compound; read-out: Percentage inhibition at 10µM (PDE7B)
T7 construct: expressed in transfected cells; host or cells: AD293 (transient transfection)
T7 sequence (Q9NP56 whole entry): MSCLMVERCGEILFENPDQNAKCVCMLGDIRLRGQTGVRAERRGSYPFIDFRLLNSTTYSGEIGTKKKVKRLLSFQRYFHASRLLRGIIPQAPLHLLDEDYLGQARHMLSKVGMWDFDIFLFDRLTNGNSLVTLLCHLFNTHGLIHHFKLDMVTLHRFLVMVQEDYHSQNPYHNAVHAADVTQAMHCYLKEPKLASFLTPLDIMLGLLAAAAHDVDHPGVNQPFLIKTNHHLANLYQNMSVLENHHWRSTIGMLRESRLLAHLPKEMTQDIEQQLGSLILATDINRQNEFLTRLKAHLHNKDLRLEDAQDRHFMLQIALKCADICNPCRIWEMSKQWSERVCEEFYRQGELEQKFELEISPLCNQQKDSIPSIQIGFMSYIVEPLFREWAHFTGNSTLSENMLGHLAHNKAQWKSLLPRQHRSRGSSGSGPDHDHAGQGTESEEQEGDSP
Procedure: as §3

[8] = biological target: T8, human PDE9A (Homo sapiens, UniProt O76083); test: Phosphodiesterase activity, AD293 cells transiently transfected with human PDE9A; format: biochemical; conditions: 10 µM compound; read-out: Percentage inhibition at 10µM (PDE9A)
T8 construct: expressed in transfected cells; host or cells: AD293 (transient transfection)
T8 sequence (O76083 whole entry): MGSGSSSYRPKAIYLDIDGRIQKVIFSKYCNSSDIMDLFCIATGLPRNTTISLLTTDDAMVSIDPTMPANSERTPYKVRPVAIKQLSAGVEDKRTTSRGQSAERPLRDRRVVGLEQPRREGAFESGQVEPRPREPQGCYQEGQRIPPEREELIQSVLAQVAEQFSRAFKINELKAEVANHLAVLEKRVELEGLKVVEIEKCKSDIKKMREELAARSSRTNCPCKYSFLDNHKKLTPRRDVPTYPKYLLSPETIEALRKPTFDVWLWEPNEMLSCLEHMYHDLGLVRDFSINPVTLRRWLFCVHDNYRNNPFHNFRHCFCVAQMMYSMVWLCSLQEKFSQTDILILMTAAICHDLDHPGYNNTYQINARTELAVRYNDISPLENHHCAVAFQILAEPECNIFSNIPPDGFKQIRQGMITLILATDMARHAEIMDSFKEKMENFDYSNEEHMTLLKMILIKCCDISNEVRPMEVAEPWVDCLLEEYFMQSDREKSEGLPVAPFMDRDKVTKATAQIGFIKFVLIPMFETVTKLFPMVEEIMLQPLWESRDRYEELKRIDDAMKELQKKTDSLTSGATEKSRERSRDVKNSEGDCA
Procedure: as §3

Structure (SMILES): Cn1cccc1-c1cc(-c2ccccc2)c(C#N)c(N)n1 [Compound 4, 2-amino-6-(1-methyl-1H-pyrrol-2-yl)-4-phenylpyridine-3-carbonitrile]
- inhibition at 0.1 µM [1]: 26%
- % displacement at 0.1 μM (A2AR) [2]: 32%
- inhibition at 0.1 µM [3]: 5%
- inhibition at 0.1 µM [4]: 13%
- IC50 [5]: 3.6 ± 0.3 µM
- inhibition at 10 µM [6]: 50%
- inhibition at 10 µM [7]: 48%
- inhibition at 10 µM [8]: 2%
- melting point: 152 to 153 °C
